Tested on: CD8 T-lymphocyte
Test: Etoposide-induced CD8 T-lymphocyte apoptosis procedure (flow cytometry, compared with 8 Gy RILA)
Assay type: cell-based, human
Details: for Corresponding etoposide concentration: x̃i^co: concentration corresponding to 8 Gy RILA, applied at the start of cell culture, whole blood
Protocol: Blood samples were purchased from Etablissement Français du Sang (EFS) with the convention number 21PLER2016-0100 AV01. Blood samples were collected from healthy donors in 5 mL heparinized tubes without separation gel.
Blood cells were grown in RPMI-1640 with glutamax (Fisher scientific, France) supplemented with 20% fetal calf serum (FCS) (EuroBio, France). Cells were maintained at 37° C. with 5% CO2 during the experiments.
Etoposide (EuroMedex) was solubilized in sterile dimethyl-sulfoxide (DMSO) at 75 mg/mL according to manufacturer instructions and stored at −80° C.
Before radiotherapy (RT), one blood sample was collected from each patient in a 5-mL heparinized tube. Twenty or twenty-four hours after blood collection, 200 μl of blood were aliquoted into a 6-well plate containing 2 mL of RPMI-20% FCS. All tests were carried out in triplicate for both 0 and 8 Gy. Ex-vivo irradiations were delivered after 24 hours of blood cell culture using the Xenx irradiator platform (XStrahl, UK). Then, the plates were immediately incubated for 48 hours at 37° C. (5% C02).
Samples were then centrifuged for 5 min at 300 g. The pellets were resuspended in phosphate-buffered saline (PBS) containing 10 μl of anti-human CD8-FITC antibody (Becton Dickinson, USA) and incubated for 20 minutes at room temperature. Then, red blood cells were lysed by addition of 4 ml of lysis buffer diluted 1:10 in water (Becton Dickinson, USA). After another 20 minutes incubation time at room temperature, samples were centrifuged for 5 min at 300 g and the pellets were washed with 3 ml of PBS. Pellets were suspended in 200 μl of PBS containing 25 μg/ml of propidium iodide (Sigma, France) and 5 μl of RNAse A at 10 mg/ml (Qiagen, France). The samples were analyzed by flow cytometry within the next hours, using the CytoFlex (Beckman Coulter, USA).
Different irradiation doses (0 Gy, 6 Gy, 8 Gy and 10 Gy) and different Etoposide concentrations (40 μg/mL, 60 μg/mL, 70 μg/mL, 80 μg/mL, 100 μg/mL) were applied to aliquots of the same blood sample.
Irradiations and culture were performed as previously described. The staining was performed 48 hours after the irradiation using the same protocol as previously described.
For the Etoposide treatment, two hundred microliters of blood were aliquoted into a 6-well plate containing 2 mL of RPMI-20% FCS-Etoposide 24 hours after blood cell collection. The cell culture media containing the different concentrations of etoposide were made fresh just before starting the cell culture. After etoposide incubation with blood cells for at least 50 hours (generally more than about 60 hours, in particular between 65 and 75 hours), samples were stained for flow cytometry analysis as described above.
Two mixed linear models with fixed intercept, fixed slope and random intercept were used to model the RILA rate evolution according to the compound or to the irradiation dose in Gray.

COc1cc([C@@H]2c3cc4c(cc3[C@@H](O[C@@H]3O[C@@H]5CO[C@@H](C)O[C@H]5[C@H](O)[C@H]3O)[C@H]3COC(=O)[C@H]23)OCO4)cc(OC)c1O [etoposide]
Corresponding etoposide concentration: x̃i^co (Donor 1): 66.2 µg/mL
Corresponding etoposide concentration: x̃i^co (Donor 2): 70.1 µg/mL
Corresponding etoposide concentration: x̃i^co (Donor 3): 67.1 µg/mL
Corresponding etoposide concentration: x̃i^co (Donor 4): 106.1 µg/mL
Corresponding etoposide concentration: x̃i^co (Donor 5): 87.1 µg/mL
concentration at which the apoptosis rate obtained after irradiation is achieved (treatment applied at the start of blood cell culture): less than 150 μg/ml

Reference: patent publication US12070470B2, “Topoisomerase inhibitor for mimicking the effect of ionizing radiations on T cells” (Novagray, priority 2018, dated 2024)
